These compounds were tested on benzodiazepine receptors (assay: in vivo displacement of 3H-flunitrazepam specific binding to benzodiazepine receptors in a living brain). Details: dose which causes specific binding of 3H-flunitrazepam to benzodiazepine receptors in a living brain to be reduced to 50% of the control value.
From the text: The pharmaceutical properties of the compounds of the invention can be illustrated by determining their capability for displacing radioactive labelled flunitrazepam from benzodiazepine receptors.
The displacement activity of the compounds of the invention may be found by determining the ED50 value. The ED50 value represents the dose (mg/kg) of a test substance which causes the specific binding of ^3 H-flunitrazepam to benzodiazepine receptors in a living brain to be reduced to 50% of the control value.
Such an in vivo test is carried out as described in U.S. Pat. No. 4,774,245.

SMILES	ED50
Clc1cccc2c1C1=NCCN1c1c(-c3noc(C4CC4)n3)ncn1-2 [Compound 6, 12-Chloro-5-(5-cyclopropyl-1,2,4-oxadiazol-3-yl)-2,3-dihydrodiimidazo[1,5-a:1',2'-c]quinazoline]	0.23 mg/kg
c1ccc2c(c1)C1=NCCN1c1c(-c3noc(C4CC4)n3)ncn1-2 [Compound 1, 5-(5-cyclopropyl-1,2,4-oxadiazol-3-yl)-2,3-dihydrodiimidazol[1,5-a:1',2'-c]quinazoline]	0.47 mg/kg
Brc1cccc2c1C1=NCCN1c1c(-c3nc(C4CC4)no3)ncn1-2 [Compound 8, 12-Bromo-5-(3-cyclopropyl-1,2,4-oxadiazol-5-yl)-2,3-dihydrodiimidazo[1,5-a:1',2'-c]quinazoline]	1.7 mg/kg
FC(F)(F)c1cccc2c1C1=NCCN1c1c(-c3noc(C4CC4)n3)ncn1-2 [Compound 12, 5-(5-Cyclopropyl-1,2,4-oxadiazol-3-yl)-2,3-dihydro-12-trifluoromethyldiimidazo[1,5-a:1',2'-c]quinazoline]	0.08 mg/kg
FC(F)(F)c1cccc2c1C1=NCCN1c1c(-c3nc(C4CC4)no3)ncn1-2 [Compound 19, 5-(3-Cyclopropyl-1,2,4-oxadiazol-5-yl)-2,3-dihydro-12-trifluoromethyldiimidazo[1,5-a:1',2'-c]quinazoline]	0.08 mg/kg
Fc1ccc2c(c1)C1=NCCN1c1c(-c3noc(C4CC4)n3)ncn1-2 [Compound 21, 5-(5-Cyclopropyl-1,2,4-oxadiazol-3-yl)-11-fluoro-2,3-dihydrodiimidazo[1,5-a:1',2'-c]quinazoline]	0.26 mg/kg
FC(F)(F)c1cccc2c1c1nccn1c1c(-c3noc(C4CC4)n3)ncn21 [Compound 28, 5-(5-Cyclopropyl-1,2,4-oxadiazol-3-yl)-12-trifluoromethyldiimidazo[1,5-a:1',2'-c]quinazoline]	0.12 mg/kg
Brc1cccc2c1C1=NCCN1c1c(-c3noc(C4CC4)n3)ncn1-2 [Compound 7, 12-Bromo-5-(5-cyclopropyl-1,2,4-oxadiazol-3-yl)-2,3-dihydroiimidazo[1,5-a:1',2'-c]quinazoline]	0.92 mg/kg

From patent publication US5100895A, “Heterocyclic compounds and their preparation and use” (Novo Nordisk A/S, priority 1989, dated 1992)
